How the values were obtained:
Caco-2/TC7 cells = assay: Cytotoxicity test, LDH secretion, Caco-2/TC7; type: cell-based; settings: for cytotoxicity (LDH), Caco-2/TC7: stimulated, low concentrations; for LDH secretion at the higher concentrations: ≥50 μM
Description: 1.2.6. […] To measure the concentration of LDH in the cell lysate, 800 μL of NADH was added to 10 μL of […] and 190 μL of 0.1 M PBS in a plastic cuvette, and the decrease in the absorbance at 340 nm was monitored for 1 min. […] The percentage of cytotoxicity could be established with the formula: […]
The cytotoxicity of the tested and control compounds was evaluated using a measurement test of the LDH (Lactate Dehydrogenase) secretion. This test is based on the measurement of the amount of LDH secreted by the cells in their supernatant, compared to the amount of LDH that will remain in the intracellular compartment. This ratio provides an indication of the membrane damage suffered by the cells, and thus of the cytotoxicity of the compound.
Two methods were used to perform this test: the measurement using an extemporaneously prepared pyruvate/NADH solution, or using the Cytotoxicity Detection Kit^PLUS(LDH) from the manufacturer Roche (Sigma-Aldrich).
Pyruvate/NADH method: pyruvate/NADH solution prepared with 4.1 mg pyruvic acid (0.62 mM) and 7.7 mg NADH (0.18 mM) in 60 ml of 0.1M PBS (pH 7.4).
For the measurement of the LDH concentration in the supernatants, 800 μL of NADH was added to 200 μL of supernatant in plastic spectrometry cuvettes, and the decrease in absorbance of the final solution was read at 340 nm for 1 min. For the measurement of the LDH concentration in the cell lysates, 800 μL of NADH was added to 10 μL of cell lysates and 190 μL of 0.1M PBS in plastic spectrometry cuvettes, and the decrease in absorbance of the final solution was read at 340 nm for 1 min. The percentage of LDH secreted was then calculated by the ratio of the decay slopes of the absorbance of the supernatants and of the cell lysates (respectively).
Cytotoxicity Detection Kit^PLUS (LDH) method: absorbance test performed according to the manufacturer's instructions. The percentage of LDH secreted was then calculated by the formula: […]

Raw 264.7 murine cells = assay: Stimulation of Raw 264.7 murine cells by IFN-γ/LPS, IL-6 secretion (ELISA); type: cell-based; settings: for activity on IFN-γ/LPS-stimulated Raw 264.7 cells compared with natural 3-oxo-C12-HSL: 1-50 μM range
Excerpt: 1.1.2. The Raw 264.7 Cell Line • The Raw 264.7 cell line consists of murine cells of macrophage type derived from cell line transformed by the virus of the Abelson leukaemia and providing from BALB/c mice. This cell line is very often used as a model of macrophages in vitro. The Raw 264.7 cells are capable of a phagocytosis and a pinocytosis, can kill the target cells by antibody-dependent cytotoxicity, and secrete a wide range of inflammatory cytokines as well as nitric oxide (NO). In addition, the Raw 264.7 cells are a very convenient cell line: the cells grow rapidly, appreciate the small diameter wells, and should be used before confluence. These conditions make it an advantageous line for the compound screening.
The cells were used between the passages 13 and 26. • The Raw 264.7 cells used are from the ATCC bank. They were grown in DMEM supplemented with 10% heat-inactivated foetal calf serum and 1% L-glutamine to 200 mM, and maintained at 37° C. with a 5% CO2/air atmosphere. The medium was changed every two days.
1.2.2. Stimulation of Raw 264.7 with LIPS and IFN-γ • Raw 264.7 cells were seeded in 12-well plates at 75,000 cells/well, or 24-well plates at 40,000 cells/well, to reach 80-90% confluence after 3 days of culture. […] The cells were harvested by scraping in 100 μL of PBS 1×/well and stored at −80° C. before the quantification of the total protein. […]
1.2.5. Quantification of the Murine Cytokines • The levels of IL-6 murine cytokines produced by cells were determined in cell supernatants or lysates using the commercially available “BD OptEIA Mouse IL-6 ELISA Set” from BD Biosciences (San Jose, Calif., USA, ref. 555240). All the ELISA kits were used according to the instructions of the manufacturer. • The cytokine rates were first normalized to the protein content determined in the corresponding cell lysates. […]

Row | SMILES | cytotoxicity (LDH), Caco-2/TC7 (Caco-2/TC7 cells) | LDH secretion at the higher concentrations (Caco-2/TC7 cells) | activity on IFN-γ/LPS-stimulated Raw 264.7 cells compared with natural 3-oxo-C12-HSL (Raw 264.7 murine cells) | LDH secretion (Caco-2/TC7 cells; Caco-2/TC7, at 100 μM) [%] | toxicity (LDH), Caco-2/TC7 (Caco-2/TC7 cells; any of the concentrations tested) | activity on IFN-γ/LPS-stimulated Raw 264.7 cells compared with natural 3-oxo-C12 HSL (Raw 264.7 murine cells; 10-50 μM range)
1 | CCCCCCCCCC(=O)CC(=O)N[C@H]1CCCC[C@@H]1O [I-2, N-[(1S,2S)-2-hydroxycyclohexyl]-3-oxo-dodecanamide] | not cytotoxic at low concentrations | not as significant | more active than the reference molecule 3-oxo-C12-HSL |  |  | 
2 | CCCCCCCCCC(=O)CC(=O)N[C@H]1CCCC[C@H]1O [I-4, N-[(1S,2R)-2-hydroxycyclohexyl]-3-oxo-dodecanamide] | not cytotoxic at low concentrations | an increase in LDH secretion | a higher activity than the natural 3-oxo-C12 HSL | 9 |  | 
3 | CCCCCCCCCC(=O)CC(=O)Nc1cc(Cl)ccc1O [I-6, N-(5-chloro-2-hydroxyphenyl)-3-oxododecanamide] |  |  |  |  | not toxic | a significantly higher activity than that of the natural 3-oxo-C12 HSL
